Data published in PubChem BioAssay AID248 (DTP/NCI, 2004).
Where “and” joins values, the source holds several entries; their conditions need not be identical. Equal entries are not always repeated. Toxic doses and inconclusive results are not listed. No stated cut-off is given here; in the data, active means T/C of 150% or more; inactive means T/C below 125%.

System: L1210 leukemia ip in BDF1 mice, survival T/C
Assay: NCI In Vivo Anticancer Drug Screen. Data for tumor model L1210 Leukemia (intraperitoneal) in B6D2F1 (BDF1) mice
Conditions: endpoint: mean survival time, higher = longer survival
Outline: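 Survival endpoint. Drug-treated group vs vehicle group, expressed as T divided by C. Tumor passaged by transplantation.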

[1] = dose: 100.0 mg/kg/injection, schedule: Q04DX003 (ip), vehicle: Klucel (hydroxypropylcellulose) (HPC)
[2] = dose: 200.0 mg/kg/injection, schedule: Q04DX003 (ip), vehicle: Klucel (hydroxypropylcellulose) (HPC)
[3] = dose: 400.0 mg/kg/injection, schedule: Q04DX003 (ip), vehicle: Klucel (hydroxypropylcellulose) (HPC)
[4] = dose: 100.0 mg/kg/injection, schedule: Q04DX003 (ip), vehicle: saline
[5] = dose: 200.0 mg/kg/injection, schedule: Q04DX003 (ip), vehicle: saline
[6] = dose: 100.0 mg/kg/injection, schedule: Q04DX002 (ip), vehicle: saline
[7] = dose: 200.0 mg/kg/injection, schedule: Q04DX002 (ip), vehicle: saline
[8] = dose: 100.0 mg/kg/injection, schedule: Q01DX001 (ip), vehicle: carboxymethylcellulose (CMC)
[9] = dose: 200.0 mg/kg/injection, schedule: Q01DX001 (ip), vehicle: carboxymethylcellulose (CMC)
[10] = dose: 400.0 mg/kg/injection, schedule: Q01DX001 (ip), vehicle: carboxymethylcellulose (CMC)
[11] = dose: 100.0 mg/kg/injection, schedule: Q01DX001 (ip), vehicle: saline
[12] = dose: 200.0 mg/kg/injection, schedule: Q01DX001 (ip), vehicle: saline
[13] = dose: 400.0 mg/kg/injection, schedule: Q01DX001 (ip), vehicle: saline
[14] = dose: 400.0 mg/kg/injection, schedule: Q04DX003 (ip), vehicle: saline
[15] = dose: 100.0 mg/kg/injection, schedule: Q01DX009 (ip), vehicle: Klucel (hydroxypropylcellulose) (HPC)
[16] = dose: 200.0 mg/kg/injection, schedule: Q01DX009 (ip), vehicle: Klucel (hydroxypropylcellulose) (HPC)
[17] = dose: 400.0 mg/kg/injection, schedule: Q01DX009 (ip), vehicle: Klucel (hydroxypropylcellulose) (HPC)
[18] = dose: 75.0 mg/kg/injection, schedule: Q01DX001 (ip), vehicle: saline
[19] = dose: 150.0 mg/kg/injection, schedule: Q01DX001 (ip), vehicle: saline
[20] = dose: 300.0 mg/kg/injection, schedule: Q01DX001 (ip), vehicle: saline

Measured: T/C

COC(=O)c1c2c(nc3ccccc13)-c1ccccc1C(C)(C)C2Br (stereo unspecified)
inactive: [1] 95 % of control | [2] 92 % of control | [3] 95 % of control

CC(=O)CC(C)=NCCN=C(C)CC(C)=O.[Ni]
inactive: dose: 1.56 mg/kg/injection, schedule: Q01DX009 (ip), vehicle: gum acacia 103 % of control | dose: 3.12 mg/kg/injection, schedule: Q01DX009 (ip), vehicle: gum acacia 104 % of control | dose: 6.25 mg/kg/injection, schedule: Q01DX009 (ip), vehicle: gum acacia 100 % of control | dose: 12.5 mg/kg/injection, schedule: Q01DX009 (ip), vehicle: gum acacia 99 % of control | dose: 12.5 mg/kg/injection, schedule: Q04DX003 (ip), vehicle: gum acacia 117 % of control | dose: 25.0 mg/kg/injection, schedule: Q04DX003 (ip), vehicle: gum acacia 118 % of control | dose: 50.0 mg/kg/injection, schedule: Q04DX003 (ip), vehicle: gum acacia 103 % of control

COc1cc(N/C(N)=N\C(N)=NC(C)C)cc(OC)c1OC
inactive: dose: 50.0 mg/kg/injection, schedule: Q01DX009 (ip), vehicle: saline sonified 98 % of control | dose: 100.0 mg/kg/injection, schedule: Q01DX009 (ip), vehicle: saline sonified 101 % of control | [4] 104 % of control | dose: 200.0 mg/kg/injection, schedule: Q01DX009 (ip), vehicle: saline sonified 102 % of control | [5] 110 % of control

C=CCP(c1ccccc1)c1ccccc1
inactive: [6] 98 % of control | [7] 91 % of control

CC1(C)CCCC(OC(=O)c2ccc([N+](=O)[O-])cc2)C1 (stereo unspecified)
inactive: [8] 93 % of control | [9] 96 % of control | [10] 102 % of control

CCCCCc1cc(O)c2c3c(c(=O)oc2c1)CCC(=O)C3
inactive: [8] 97 % of control | [9] 100 % of control | [10] 97 % of control

O=C(O)CNc1cc(S(=O)(=O)O)cc2cc(S(=O)(=O)O)cc(O)c12
inactive: [11] 103 % of control | [4] 103 % of control | [12] 107 % of control | [5] 90 % of control | [13] 96 % of control | [14] 92 % of control

CCNC(=O)NC1C(O)OC(CO)C(O)C1O (stereo unspecified)
inactive: [11] 96 % of control | [4] 99 % of control | [12] 103 % of control | [5] 99 % of control | [13] 102 % of control | [14] 95 % of control

O=C(O)C1=NN(c2cc(Cl)c(S(=O)(=O)O)cc2Cl)C(=O)C1
inactive: [4] 92 % of control | [5] 100 % of control | [14] 106 % of control

Brc1c2ccccc2cc2ccccc12
inactive: dose: 100.0 mg/kg/injection, schedule: Q04DX002 (ip), vehicle: gum acacia 101 % of control | dose: 200.0 mg/kg/injection, schedule: Q04DX002 (ip), vehicle: gum acacia 93 % of control | dose: 400.0 mg/kg/injection, schedule: Q04DX002 (ip), vehicle: gum acacia 96 % of control

O=C(N/N=C/c1ccco1)c1ccccc1
inactive: dose: 50.0 mg/kg/injection, schedule: Q01DX009 (ip), vehicle: saline with Tween-80 94 % of control and 103 % of control | dose: 100.0 mg/kg/injection, schedule: Q01DX001 (ip), vehicle: saline with Tween-80 106 % of control | dose: 100.0 mg/kg/injection, schedule: Q01DX009 (ip), vehicle: saline with Tween-80 100 % of control and 103 % of control | dose: 100.0 mg/kg/injection, schedule: Q04DX002 (ip), vehicle: saline with Tween-80 96 % of control | dose: 100.0 mg/kg/injection, schedule: Q04DX003 (ip), vehicle: saline with Tween-80 98 % of control | dose: 200.0 mg/kg/injection, schedule: Q01DX001 (ip), vehicle: saline with Tween-80 101 % of control | dose: 200.0 mg/kg/injection, schedule: Q01DX009 (ip), vehicle: saline with Tween-80 103 % of control and 87 % of control | dose: 200.0 mg/kg/injection, schedule: Q04DX002 (ip), vehicle: saline with Tween-80 97 % of control | dose: 200.0 mg/kg/injection, schedule: Q04DX003 (ip), vehicle: saline with Tween-80 105 % of control | dose: 400.0 mg/kg/injection, schedule: Q01DX001 (ip), vehicle: saline with Tween-80 114 % of control | dose: 400.0 mg/kg/injection, schedule: Q04DX002 (ip), vehicle: saline with Tween-80 110 % of control | dose: 400.0 mg/kg/injection, schedule: Q04DX003 (ip), vehicle: saline with Tween-80 103 % of control

N=C(N)CCc1ccccc1
inactive: dose: 75.0 mg/kg/injection, schedule: Q04DX003 (ip), vehicle: saline 99 % of control | dose: 150.0 mg/kg/injection, schedule: Q04DX003 (ip), vehicle: saline 98 % of control

CCCCN(CCCC)c1ccc(N=C(C#N)c2ccc(N(CCCC)CCCC)cc2)cc1
inactive: [15] 96 % of control | [16] 96 % of control | [17] 105 % of control

CCCCCCCCCCCCCCC(=O)[O][Hg][c]1ccccc1
inactive: dose: 75.0 mg/kg/injection, schedule: Q01DX001 (ip), vehicle: steriod suspending solution 100 % of control

O=C(Nc1cc(C(F)(F)F)ccc1Cl)c1ccc(Cl)cc1
inactive: [15] 110 % of control | [4] 103 % of control | [16] 94 % of control | [5] 114 % of control | [17] 94 % of control | [14] 106 % of control

O=C(O)CC(c1ccccc1)C(Nc1ccc2ccccc2c1)C(=O)O (stereo unspecified)
inactive: dose: 100.0 mg/kg/injection, schedule: Q04DX002 (ip), vehicle: Klucel (hydroxypropylcellulose) (HPC) 89 % of control | dose: 200.0 mg/kg/injection, schedule: Q04DX002 (ip), vehicle: Klucel (hydroxypropylcellulose) (HPC) 100 % of control | dose: 400.0 mg/kg/injection, schedule: Q04DX002 (ip), vehicle: Klucel (hydroxypropylcellulose) (HPC) 96 % of control

C/C(=N/N(C)C)c1ccc(F)cc1
inactive: dose: 6.25 mg/kg/injection, schedule: Q01DX009 (ip), vehicle: saline 94 % of control | dose: 12.5 mg/kg/injection, schedule: Q01DX009 (ip), vehicle: saline 98 % of control | dose: 25.0 mg/kg/injection, schedule: Q01DX009 (ip), vehicle: saline 106 % of control | dose: 50.0 mg/kg/injection, schedule: Q01DX009 (ip), vehicle: saline 101 % of control | dose: 100.0 mg/kg/injection, schedule: Q01DX009 (ip), vehicle: saline 94 % of control

O=C(NC(=S)NCc1ccccc1)c1ccccc1
inactive: [18] 98 % of control | [19] 93 % of control | [20] 98 % of control

CC(C)(C)c1cc(O)c(O)c(C(C)(C)C)c1
inactive: dose: 25.0 mg/kg/injection, schedule: Q04DX003 (ip), vehicle: other 104 % of control | dose: 50.0 mg/kg/injection, schedule: Q04DX003 (ip), vehicle: other 104 % of control | dose: 100.0 mg/kg/injection, schedule: Q04DX003 (ip), vehicle: other 105 % of control

CCOC(=O)NCC(C)(CCN1CCCC1)c1cccc2ccccc12 (stereo unspecified)
inactive: dose: 12.5 mg/kg/injection, schedule: Q01DX009 (ip), vehicle: saline with Tween-80 93 % of control | dose: 12.5 mg/kg/injection, schedule: Q04DX003 (ip), vehicle: Klucel (hydroxypropylcellulose) (HPC) 100 % of control | dose: 25.0 mg/kg/injection, schedule: Q01DX009 (ip), vehicle: saline with Tween-80 88 % of control | dose: 25.0 mg/kg/injection, schedule: Q04DX003 (ip), vehicle: Klucel (hydroxypropylcellulose) (HPC) 100 % of control | dose: 50.0 mg/kg/injection, schedule: Q04DX003 (ip), vehicle: Klucel (hydroxypropylcellulose) (HPC) 100 % of control

O=C(NCCCl)Nc1cccc2cccnc12
inactive: [15] 100 % of control | [1] 100 % of control | [16] 98 % of control | [2] 102 % of control | [17] 98 % of control | [3] 94 % of control

O=C(CC1C=CCC1)NCc1ccccc1 (stereo unspecified)
inactive: [18] 101 % of control | [19] 95 % of control | [20] 93 % of control

CN(C)S(=O)(=O)Oc1ccc(S(=O)(=O)F)cc1Cl
inactive: [6] 112 % of control | [7] 104 % of control | dose: 400.0 mg/kg/injection, schedule: Q04DX002 (ip), vehicle: saline 112 % of control
